EC50 data for 18 molecules are collected here from patent publication US9951065B2 (Gilead Sciences, Inc., priority 2015, dated 2018).

A value given as a limit tells only on which side of the number the result lay.

In the experiment the target is T1, IDO1 (Homo sapiens, UniProt P14902).
T1 construct: HeLa cells were treated with a test compound in the presence of IFNγ, which induces IDO1 expression; host or cells: H1-HeLa cells, IDO1 induced with IFNγ
T1 sequence (P14902 whole entry): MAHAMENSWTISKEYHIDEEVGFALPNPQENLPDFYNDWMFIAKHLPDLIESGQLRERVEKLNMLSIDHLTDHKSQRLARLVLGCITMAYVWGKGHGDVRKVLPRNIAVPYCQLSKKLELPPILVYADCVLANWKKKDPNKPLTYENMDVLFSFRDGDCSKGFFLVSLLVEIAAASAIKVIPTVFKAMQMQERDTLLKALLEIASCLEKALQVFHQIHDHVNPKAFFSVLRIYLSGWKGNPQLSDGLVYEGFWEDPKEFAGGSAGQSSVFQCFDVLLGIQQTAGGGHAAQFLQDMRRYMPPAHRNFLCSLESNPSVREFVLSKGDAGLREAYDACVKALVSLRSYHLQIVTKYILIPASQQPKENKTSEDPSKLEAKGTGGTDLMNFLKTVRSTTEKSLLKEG
Put plainly: Cell-based (HeLa) assay for measurement of IDO1 inhibition (kynurenine levels in supernatant after IFNγ induction). The settings on record: HeLa cells, IFNγ-induced IDO1, kynurenine in supernatant, 48 hour incubation; geometric mean of a minimum of four determinations. In a few lines:
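IDO1 activity is read as kynurenine released into the medium, detected with Ehrlich's reagent (p-dimethylaminobenzaldehyde) at 480 nm after TCA treatment. HeLa cells were exposed 48 h to compounds in 0.5% DMSO alongside IFNγ induction. Values normalized to no-IFNγ and IFNγ controls; four-parameter EC50 given as geometric mean of ≥4 determinations.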
One may read the EC50 as the midpoint of the concentration-response curve. Higher therefore signals lower potency in that assay. Consider `O/N=C(\Nc1ccc(F)c(Cl)c1)c1cc(F)c(F)c2nc(NC3CNCCOC3)[nH]c12` (stereo not drawn) [Example 477, 2-((1,4-oxazepan-6-yl)amino)-N-(3-chloro-4-fluorophenyl)-4,5-difluoro-N′-hydroxy-1H-benzo[d]imidazole-7-carboximidamide], for which a half-maximal effect (EC50) was put at 1520 nM.
`C[C@@H]1CN(CCNc2nc3nccc(/C(=N/O)Nc4ccc(F)c(Cl)c4)c3[nH]2)C[C@H](C)O1` [Example 478, N-(3-chloro-4-fluorophenyl)-2-((2-((2S,6R)-2,6-dimethylmorpholino)ethyl)amino)-N′-hydroxy-1H-imidazo[4,5-b]pyridine-7-carboximidamide] registered an EC50 of 1010 nM.
Next, `CO[C@@H]1CN(C)C[C@H]1Nc1nc2nccc(/C(=N/O)Nc3ccc(F)c(Cl)c3)c2[nH]1` [Example 479, N-(3-chloro-4-fluorophenyl)-N′-hydroxy-2-(((3R,4R)-4-methoxy-1-methylpyrrolidin-3-yl)amino)-1H-imidazo[4,5-b]pyridine-7-carboximidamide]: 1070 nM.
Next, `CCN(CC)[C@H]1COC[C@@H]1Nc1nc2nccc(C(=NO)Nc3ccc(F)c(Cl)c3)c2[nH]1` [Example 480, N-(3-chloro-4-fluorophenyl)-2-(((3R,4R)-4-(diethylamino)tetrahydrofuran-3-yl)amino)-N′-hydroxy-1H-imidazo[4,5-b]pyridine-7-carboximidamide]: 1190 nM; `O/N=C(\Nc1ccc(F)c(Cl)c1)c1ccnc2nc(NCCN3CCC[C@H]3C(F)(F)F)[nH]c12` [Example 481, (S)-N-(3-chloro-4-fluorophenyl)-N′-hydroxy-2-((2-(2-(trifluoromethyl)pyrrolidin-1-yl)ethyl)amino)-1H-imidazo[4,5-b]pyridine-7-carboximidamide]: 760 nM.
`CN1CCOC[C@H]1CNc1nc2nccc(/C(=N/O)Nc3ccc(F)c(Cl)c3)c2[nH]1` [Example 482, (R)-N-(3-chloro-4-fluorophenyl)-N′-hydroxy-2-(((4-methylmorpholin-3-yl)methyl)amino)-1H-imidazo[4,5-b]pyridine-7-carboximidamide]: it took 2650 nM to reach a half-maximal effect (EC50).
With `CC1CN(C(C)CNc2nc3nccc(/C(=N/O)Nc4ccc(F)c(Cl)c4)c3[nH]2)CC(C)O1` (stereo not drawn) [Example 483, N-(3-chloro-4-fluorophenyl)-2-((2-(2,6-dimethylmorpholino)propyl)amino)-N′-hydroxy-1H-imidazo[4,5-b]pyridine-7-carboximidamide] the figure was 668 nM.
With `CC1CN(C(C)(C)CNc2nc3nccc(/C(=N/O)Nc4ccc(F)c(Cl)c4)c3[nH]2)CC(C)O1` (stereo not drawn) [Example 484, N-(3-chloro-4-fluorophenyl)-2-((2-(2,6-dimethylmorpholino)-2-methylpropyl)amino)-N′-hydroxy-1H-imidazo[4,5-b]pyridine-7-carboximidamide] the figure was 566 nM; with `CC1CN(CCNc2nc3nccc(/C(=N/O)Nc4ccc(F)c(Cl)c4)c3[nH]2)C(C)CO1` (stereo not drawn) [Example 485, N-(3-chloro-4-fluorophenyl)-2-((2-(2,5-dimethylmorpholino)ethyl)amino)-N′-hydroxy-1H-imidazo[4,5-b]pyridine-7-carboximidamide], 639 nM.
Next, `CN(C)[C@@H]1CCC[C@H]1Nc1nc2c(F)c(F)cc(/C(=N/O)Nc3ccc(F)c(Cl)c3)c2[nH]1` [Example 486, N-(3-chloro-4-fluorophenyl)-2-(((1R,2R)-2-(dimethylamino)cyclopentyl)amino)-4,5-difluoro-N′-hydroxy-1H-benzo[d]imidazole-7-carboximidamide]: 284 nM; `CN(C)CCSc1nc2nccc(/C(=N/O)Nc3ccc(F)c(Cl)c3)c2[nH]1` [Example 487, N-(3-chloro-4-fluorophenyl)-2-((2-(dimethylamino)ethyl)thio)-N′-hydroxy-1H-imidazo[4,5-b]pyridine-7-carboximidamide]: 1360 nM.
Molecule `CN(C)CCSc1nc2c(F)c(F)cc(/C(=N/O)Nc3ccc(F)c(Cl)c3)c2[nH]1` [Example 488, N-(3-chloro-4-fluorophenyl)-2-((2-(dimethylamino)ethyl)thio)-4,5-difluoro-N′-hydroxy-1H-benzo[d]imidazole-7-carboximidamide] gave an EC50 of 3010 nM.
Next, `OCC1CCCCN1CCNc1nc2c(F)c(F)cc(/C(=N/O)Nc3ccc(F)c(Cl)c3)c2[nH]1` (stereo not drawn) [Example 489, N-(3-chloro-4-fluorophenyl)-4,5-difluoro-N′-hydroxy-2-((2-(2-(hydroxymethyl)piperidin-1-yl)ethyl)amino)-1H-benzo[d]imidazole-7-carboximidamide]: 289 nM; `OCC1CCCN1CCNc1nc2c(F)c(F)cc(/C(=N/O)Nc3ccc(F)c(Cl)c3)c2[nH]1` (stereo not drawn) [Example 490, N-(3-chloro-4-fluorophenyl)-4,5-difluoro-N′-hydroxy-2-((2-(2-(hydroxymethyl)pyrrolidin-1-yl)ethyl)amino)-1H-benzo[d]imidazole-7-carboximidamide]: 186 nM.
Next, `O/N=C(\Nc1ccc(F)c(Cl)c1)c1ccnc2nc(NCCN3CCC(F)(F)C3)[nH]c12` [Example 491, N-(3-chloro-4-fluorophenyl)-2-((2-(3,3-difluoropyrrolidin-1-yl)ethyl)amino)-N′-hydroxy-1H-imidazo[4,5-b]pyridine-7-carboximidamide]: 917 nM; `NS(=O)(=O)CCNc1nc2nccc(/C(=N/O)Nc3ccc(F)c(Cl)c3)c2[nH]1` [Example 492, N-(3-chloro-4-fluorophenyl)-N′-hydroxy-2-((2-sulfamoylethyl)amino)-1H-imidazo[4,5-b]pyridine-7-carboximidamide]: 5660 nM; `CS(=O)(=O)CCNc1nc2nccc(/C(=N/O)Nc3ccc(F)c(Cl)c3)c2[nH]1` [Example 493, N-(3-chloro-4-fluorophenyl)-N′-hydroxy-2-((2-(methylsulfonyl)ethyl)amino)-1H-imidazo[4,5-b]pyridine-7-carboximidamide]: 7210 nM.
With `O/N=C(\Nc1ccc(F)c(Cl)c1)c1ccnc2nc(NCc3ncccn3)[nH]c12` [Example 494, N-(3-chloro-4-fluorophenyl)-N′-hydroxy-2-((pyrimidin-2-ylmethyl)amino)-1H-imidazo[4,5-b]pyridine-7-carboximidamide] the figure was greater than 10000 nM.
